Results taken from publication PMC9508196 (Scientific Reports, 2022).
No end group written: not given here.

Legend:
[1] = system: A. baumannii A-8.2–1 (XDR); experiment: microbe, parasite or virus in culture; format: cell-based, Acinetobacter baumannii; conditions: clinical isolate A-8.2–1 (XDR), blood
Source text: (§1) Ten strains of both Gram-positive and -negative bacteria, including Staphylococcus aureus ATCC 25,923, S. epidermidis ATCC 12,228, Bacillus cereus ATCC 11,778, Listeria monocytogenes 10403S, Salmonella typhimurium ATCC 13,311, Pseudomonas aeruginosa ATCC 27,853, Shigella sonnei ATCC 11,060, A. baumannii ATCC 19,606, Escherichia coli ATCC 25,922 and E. coli O157:H7, were used in this study. Eight clinical isolates of multidrug-resistant (MDR) and extensively drug-resistant (XDR) A. baumannii, isolated from human (blood, sputum, respiratory sample, sterile site sample and urine), were kindly provided by Asst. Prof. Dr. Sakawrat Kanthawong (Faculty of Medicine, Khon Kaen University, Thailand) (Table S1). All bacterial strains, excluding L. monocytogenes 10403S and E. coli, were cultured in tryptic soy broth (TSB). L. monocytogenes was grown in TSB supplemented with 0.6% yeast extract (TSB-YE), and E. coli was cultured in Luria broth (LB). All of bacteria were cultured at 37 °C with continuous shaking at 220 rpm.
(§2) Minimum inhibitory concentration (MIC) of peptides and antibiotics was assessed by a modified version of the broth microdilution method from the Clinical and Laboratory Standards Institute (CLSI) as previously described. In brief, mid-log phase growths of microbial strains were cultured in Müeller-Hinton broth (MHB) with an initial inoculum of 2–8 × 10^5 CFU/mL. Bacteria suspensions were incubated in sterile 96-well plates with test agents at desired concentrations. […] Minimum bactericidal concentration (MBC) determination was performed using a modified version of the colony count assay. In brief, fifty µl of all non-turbid wells from MIC experiments were spread on agar plates. The MBC value was defined as the lowest concentration of peptides with no colony growth on the plate. All assays were performed in triplicate.

A. baumannii ATCC 19,606 = experiment: microbe, parasite or virus in culture; format: cell-based, Acinetobacter baumannii; conditions: A. baumannii ATCC 19,606, triplicate; for MIC: broth microdilution (modified CLSI), MHB, 2–8 × 10^5 CFU/mL, 24 h, 37 °C
Source text: as §1, §2

[2] = system: A. baumannii B-8.1–1 (MDR); experiment: microbe, parasite or virus in culture; format: cell-based, Acinetobacter baumannii; conditions: clinical isolate B-8.1–1 (MDR), respiratory tract
Source text: as §1, §2

[3] = system: A. baumannii B-8.1–2 (MDR); experiment: microbe, parasite or virus in culture; format: cell-based, Acinetobacter baumannii; conditions: clinical isolate B-8.1–2 (MDR), respiratory tract
Source text: as §1, §2

[4] = system: A. baumannii B-8.2–2 (XDR); experiment: microbe, parasite or virus in culture; format: cell-based, Acinetobacter baumannii; conditions: clinical isolate B-8.2–2 (XDR), respiratory tract
Source text: as §1, §2

[5] = system: A. baumannii C-8.1–2 (MDR); experiment: microbe, parasite or virus in culture; format: cell-based, Acinetobacter baumannii; conditions: clinical isolate C-8.1–2 (MDR), sterile site
Source text: as §1, §2

[6] = system: A. baumannii C-8.2–1 (XDR); experiment: microbe, parasite or virus in culture; format: cell-based, Acinetobacter baumannii; conditions: clinical isolate C-8.2–1 (XDR), sterile site
Source text: as §1, §2

[7] = system: A. baumannii D-10.1–1 (MDR); format: cell-based, Acinetobacter baumannii; conditions: clinical isolate D-10.1–1 (MDR), urine
Source text: as §1, §2

[8] = system: A. baumannii D-10.1–2 (MDR); format: cell-based, Acinetobacter baumannii; conditions: clinical isolate D-10.1–2 (MDR), urine
Source text: as §1, §2

[9] = system: A. baumannii isolate A-8.2-1; experiment: Disk diffusion test (CLSI), antibiotic susceptibility profile; format: cell-based, Acinetobacter baumannii; conditions: CLSI breakpoints
Protocol: (§3) ^aAntibiotic susceptibility profile of all isolated strains was evaluated by disk diffusion test, using the standard protocol guide of the Clinical and Laboratory Standards Institute (CLSI), and interpreted as S: Susceptible to standard dosing regimen; I: Intermediate; R: Resistant (in accordance with the criteria of CLST breakpoints).

[10] = system: A. baumannii isolate B-8.1-1; experiment: as above; format: cell-based, Acinetobacter baumannii; conditions: CLSI breakpoints
Protocol: as §3

[11] = system: A. baumannii isolate B-8.1-2; experiment: as above; format: cell-based, Acinetobacter baumannii; conditions: CLSI breakpoints
Protocol: as §3

[12] = system: A. baumannii isolate B-8.2-2; experiment: as above; format: cell-based, Acinetobacter baumannii; conditions: CLSI breakpoints
Protocol: as §3

[13] = system: A. baumannii isolate C-8.1-2; experiment: as above; format: cell-based, Acinetobacter baumannii; conditions: CLSI breakpoints
Protocol: as §3

[14] = system: A. baumannii isolate C-8.2-1; experiment: as above; format: cell-based, Acinetobacter baumannii; conditions: CLSI breakpoints
Protocol: as §3

[15] = system: A. baumannii isolate D-10.1-1; experiment: as above; format: cell-based, Acinetobacter baumannii; conditions: CLSI breakpoints
Protocol: as §3

[16] = system: A. baumannii isolate D-10.1-2; experiment: as above; format: cell-based, Acinetobacter baumannii; conditions: CLSI breakpoints
Protocol: as §3

[17] = system: Bacillus cereus ATCC 11,778; format: cell-based; conditions: B. cereus ATCC 11,778; broth microdilution, MHB, 24 h, 37 °C, triplicate
Source text: as §1, §2

[18] = system: Escherichia coli ATCC 25,922; format: cell-based; conditions: E. coli ATCC 25,922; broth microdilution, MHB, 24 h, 37 °C, triplicate
Source text: as §1, §2

[19] = system: Escherichia coli O157:H7 MT strain; format: cell-based; conditions: E. coli O157:H7 MT strain; broth microdilution, MHB, 24 h, 37 °C, triplicate
Source text: as §1, §2

[20] = system: Listeria monocytogenes 10403S; format: cell-based; conditions: L. monocytogenes 10403S; broth microdilution, MHB, 24 h, 37 °C, triplicate
Source text: as §1, §2

[21] = system: Pseudomonas aeruginosa ATCC 27,853; format: cell-based; conditions: P. aeruginosa ATCC 27,853; broth microdilution, MHB, 24 h, 37 °C, triplicate
Source text: as §1, §2

[22] = system: Salmonella Typhimurium ATCC 13,311; format: cell-based; conditions: S. Typhimurium ATCC 13,311; broth microdilution, MHB, 24 h, 37 °C, triplicate
Source text: as §1, §2

[23] = system: Shigella sonnei ATCC 11,060; format: cell-based; conditions: S. sonnei ATCC 11,060; broth microdilution, MHB, 24 h, 37 °C, triplicate
Source text: as §1, §2

[24] = system: Staphylococcus aureus ATCC 25,923; format: cell-based; conditions: S. aureus ATCC 25,923; broth microdilution, MHB, 24 h, 37 °C, triplicate
Source text: as §1, §2

[25] = system: Staphylococcus epidermidis ATCC 12,228; format: cell-based; conditions: S. epidermidis ATCC 12,228; broth microdilution, MHB, 24 h, 37 °C, triplicate
Source text: as §1, §2

[26] = system: human red blood cells (hRBCs); experiment: Hemolysis assay; format: cell-based; conditions: peptide concentration that caused 10% hemolysis; 2% (v/v) hRBCs in PBS pH 7.4, 0.98 to 250 μg/ml, 1 h, 37 °C, OD 405 nm, triplicate
Protocol: The hemolytic activity of peptides was determined as the amount of hemoglobin released from lysed human red blood cells (hRBCs) after treatment with peptide. Fresh hRBCs were collected from a healthy volunteer in polycarbonate tubes containing heparin. Then, the collected packed RBCs were washed at least three times (or until the supernatant was clear) with sterile phosphate-buffered saline pH 7.4 (PBS) and centrifuged at 2,000 × g for 5 min. The 2% (v/v) of washed hRBCs in PBS were incubated with serially diluted peptides (0.98 to 250 μg/ml) for 1 h at 37 °C. After centrifugation, the supernatants were monitored for optical density (OD) at 405 nm using a Multiskan FC Microplate Reader[21]. Values for 0% (negative control) and 100% (positive control) lysis were determined by incubating the hRBCs with PBS only (ODBlank) and 0.1% (v/v) Triton X-100 (ODTriton X-100), respectively. The experiments were performed in triplicate. The percent hemolysis was calculated according to the following equation: %Hemolysis=ODSample-ODBlank/ODTriton X-100-ODBlank×100

Colistin
MBC [1]: 1.95(1.95) µg/ml | MIC [1]: 1.95(1.95) µg/ml | MIC (A. baumannii ATCC 19,606): 0.98(0.98) µg/ml | MBC (A. baumannii ATCC 19,606; colony count from non-turbid MIC wells): 0.98(0.98) µg/ml | MBC [2]: 1.95(1.95) µg/ml | MIC [2]: 1.95(1.95) µg/ml | MBC [3]: 0.98(0.98) µg/ml | MIC [3]: 0.98(0.98) µg/ml | MBC [4]: 1.95(1.95) µg/ml | MIC [4]: 1.95(1.95) µg/ml | MBC [5]: 1.95(1.95) µg/ml | MIC [5]: 1.95(1.95) µg/ml | MBC [6]: 0.98(0.98) µg/ml | MIC [6]: 0.98(0.98) µg/ml | MBC [7]: 0.98(0.98) µg/ml | MIC [7]: 0.98(0.98) µg/ml | MBC [8]: 1.95(1.95) µg/ml | MIC [8]: 1.95(1.95) µg/ml | Antibiotic susceptibility profile [9]: S | Antibiotic susceptibility profile [10]: S | Antibiotic susceptibility profile [11]: S | Antibiotic susceptibility profile [12]: S | Antibiotic susceptibility profile [13]: S | Antibiotic susceptibility profile [14]: S | Antibiotic susceptibility profile [15]: S | Antibiotic susceptibility profile [16]: S

RLFRRVKKVAGKIAKRIWKILRR-NH2 [A3P7]
MIC (A. baumannii ATCC 19,606): 7.81 µg/mL | MIC [17]: 7.81 µg/mL | MIC [18]: 7.81 µg/mL | MIC [19]: 15.63 µg/mL | MIC [20]: 3.91 µg/mL | MIC [21]: 7.81 µg/mL | MIC [22]: 7.81 µg/mL | MIC [23]: 7.81 µg/mL | MIC [24]: 7.81 µg/mL | MIC [25]: 7.81 µg/mL | MHC, minimum hemolytic concentration [26]: 1.95 µg/mL
